Measured values reported in article PMC5388777 (Frontiers in Psychiatry, 2017).
Where “and” joins values, the source holds several entries; their conditions need not be identical. Equal entries are not always repeated.

Experiments:
kappa opioid receptor [1] = biological target: T1, kappa opioid receptor (Homo sapiens, UniProt P41145); test: biochemical; conditions: Receptor binding Ki
T1 construct: expressed in transfected cells; membranes prepared

delta opioid receptor [2] = biological target: T2, delta opioid receptor (Homo sapiens, UniProt P41143); test: biochemical; conditions: Receptor binding Ki
T2 construct: expressed in transfected cells; membranes prepared
T2 sequence (P41143 whole entry): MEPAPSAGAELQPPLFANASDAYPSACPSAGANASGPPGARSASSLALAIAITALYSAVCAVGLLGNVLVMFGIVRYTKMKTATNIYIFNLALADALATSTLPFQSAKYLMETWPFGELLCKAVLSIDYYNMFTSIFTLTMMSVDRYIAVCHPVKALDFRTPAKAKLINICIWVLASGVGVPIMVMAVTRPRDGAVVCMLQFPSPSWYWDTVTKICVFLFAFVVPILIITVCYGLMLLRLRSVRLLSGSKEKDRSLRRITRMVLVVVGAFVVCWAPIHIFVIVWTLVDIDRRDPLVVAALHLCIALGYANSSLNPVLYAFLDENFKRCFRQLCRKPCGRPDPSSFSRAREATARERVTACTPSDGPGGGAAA

mu opioid receptor = biological target: T3, mu opioid receptor (Homo sapiens, UniProt P35372); type: biochemical
T3 construct: expressed in transfected cells; membranes prepared
T3 sequence (P35372 whole entry): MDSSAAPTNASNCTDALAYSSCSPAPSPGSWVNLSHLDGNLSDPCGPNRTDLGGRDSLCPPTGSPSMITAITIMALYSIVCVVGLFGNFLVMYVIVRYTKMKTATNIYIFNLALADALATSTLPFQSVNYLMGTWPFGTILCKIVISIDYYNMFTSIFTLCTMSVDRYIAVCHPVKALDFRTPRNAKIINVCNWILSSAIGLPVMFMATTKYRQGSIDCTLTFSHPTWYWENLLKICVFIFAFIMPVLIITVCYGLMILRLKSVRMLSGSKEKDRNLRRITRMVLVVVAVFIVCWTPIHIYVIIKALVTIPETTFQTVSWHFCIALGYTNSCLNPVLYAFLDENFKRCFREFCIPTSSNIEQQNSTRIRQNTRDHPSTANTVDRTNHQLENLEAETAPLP

kappa opioid receptor [3] = biological target: T1, kappa opioid receptor; test: biochemical
delta opioid receptor [4] = biological target: T2, delta opioid receptor; test: [35S]GTPγS binding, CHO cell membranes; type: biochemical; conditions: for Delta % Stim.: [35S]GTPγS binding, mean ± SEM
male ICR mice [5] = test: Tail flick assay (thermal nociception); type: in vivo; conditions: for Tail flick latency after antagonist alone: given 24 h before vehicle, JDTic 10 mg/kg, beta-FNA 40 mg/kg s.c.; for Antinociception (%MPE) versus vehicle: 60-min post-injection, s.c., PPL-101 0.3-10 mg/kg, PPL-103 0.3-3 mg/kg
male Sprague-Dawley rats [6] = test: Plantar test (paw withdrawal latency); type: in vivo; conditions: U-69,593 0.3 mg/kg
male ICR mice [7] = test: Conditioned place preference (CPP) paradigm; type: in vivo; conditions: s.c., three drug sessions; morphine 15 mg/kg, PPL-101 1-3 mg/kg, PPL-103 0.3-3 mg/kg
male ICR mice [8] = test: Global activity during CPP conditioning; type: in vivo; conditions: s.c.; for Global activity versus vehicle controls: morphine 15 mg/kg (first injection), PPL-101 and PPL-103 3.0 mg/kg (first and third injections)
male Sprague-Dawley rats [9] = test: Intravenous self-administration (FR-1 and PR schedules)
non-human primates = conditions: ref Harris et al. unpublished observation; cited from earlier work

T1 sequence (P41145 whole entry): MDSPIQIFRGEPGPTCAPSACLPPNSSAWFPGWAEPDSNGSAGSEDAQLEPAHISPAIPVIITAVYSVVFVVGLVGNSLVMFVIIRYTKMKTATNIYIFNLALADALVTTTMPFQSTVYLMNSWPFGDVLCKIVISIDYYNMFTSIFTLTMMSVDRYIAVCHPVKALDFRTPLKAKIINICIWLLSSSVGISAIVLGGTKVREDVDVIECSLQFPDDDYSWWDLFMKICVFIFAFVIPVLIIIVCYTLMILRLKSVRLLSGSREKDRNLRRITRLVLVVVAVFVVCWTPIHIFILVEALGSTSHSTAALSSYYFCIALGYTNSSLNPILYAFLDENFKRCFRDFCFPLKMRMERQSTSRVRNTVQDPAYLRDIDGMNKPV

Row | Structure (SMILES) | Ki (kappa opioid receptor [1]) [nM] | Ki (delta opioid receptor [2]) [nM] | Mu % Stim. (mu opioid receptor) [%] | Kappa % Stim. (kappa opioid receptor [3]) [%] | Delta % Stim. (delta opioid receptor [4]) [%] | Tail flick latency after antagonist alone (male ICR mice [5]) | Antinociception (%MPE) versus vehicle (male ICR mice [5]; morphine 15 mg/kg) | Acquisition of CPP (difference score) versus vehicle controls (male ICR mice [7]) | Global activity versus vehicle controls (male ICR mice [8]) | further results
1 | C[C@H]1[C@H]2Cc3ccc(O)cc3[C@]1(C)CCN2CC1CC1 [Cyclazocine, cycloproplymethyl-benzomorphan, reference compound] | 0.1 ± 0.02 | 0.8 ± 0.05 | 33 ± 18 | 80 ± 9 | 82 ± 9 | – | – | – | – | –
2 | C[C@@H](NC(=O)[C@@H](N)Cc1ccc(O)cc1)C(=O)NCC(=O)N(C)[C@@H](Cc1ccccc1)C(=O)NCCO [DAMGO, [D-Ala2, N-MePhe4, Gly-ol]-enkephalin, reference compound] | – | – | 100 | 62 ± 21.0 | – | – | – | – | – | –
3 | CC(C)[C@@H](CN1CC[C@@](C)(c2cccc(O)c2)[C@@H](C)C1)NC(=O)[C@H]1Cc2ccc(O)cc2CN1 [JDTic, (3R)-7-hydroxy-N-[(1S)-1-[[(3R,4R)-4-(3-hydroxyphenyl)-3,4-dimethyl-1-piperidinyl]methyl]-2-methylpropyl]-1,2,3,4-tetrahydro-3-isoquinoline-carboxamide] | – | – | – | – | – | have no effect on tail flick latency in mice | – | – | – | Blockade of U-69,593-induced antinociception (male Sprague-Dawley rats [6]; JDTic 10 mg/kg single dose): able to block the antinociceptive effect U-69,593; Antinociception (paw withdrawal latency) (male Sprague-Dawley rats [6]; JDTic 10 mg/kg single treatment one week before): by itself did not
4 | CN1CC[C@]23c4c5ccc(O)c4O[C@H]2[C@@H](O)C=C[C@H]3[C@H]1C5 [Morphine, reference compound] | – | – | – | – | – | – | produced the maximal effect in increase in tail flick relative to vehicle controls | exhibited a significant CPP | increase in global activity after the first drug injection relative to vehicle controls | Time course of antinociception (%MPE) versus vehicle (male ICR mice [5]; 0.5, 1, 2, 4 h post-injection, PPL-101 0.3-10 mg/kg s.c., morphine 15 mg/kg): anticipated increase in %MPE at all the time points compared to vehicle controls; Effect of JDTic pretreatment on the compound's antinociception (male ICR mice [5]; JDTic 10 mg/kg s.c. 24 h before): not altered by the kappa antagonist JDTic; Effect of beta-FNA pretreatment on the compound's antinociception (male ICR mice [5]; beta-FNA 40 mg/kg s.c. 24 h before): completely inhibited by the mu opioid antagonist beta-FNA; Global activity after third versus first drug injection (male ICR mice [8]; morphine 15 mg/kg, PPL-101 3 mg/kg): increase in activity following the third drug injection relative to the first drug injection; Effect of JDTic on self-administration of the compound (male Sprague-Dawley rats [9]; 100 µg/kg/infusion, FR1TO20, JDTic 10 mg/kg i.p., seven sessions versus baseline): no significant effect of JDTic on morphine self-administration; Average responses on the morphine-associated lever (male Sprague-Dawley rats [9]; 100 µg/kg/infusion, last 3 days prior to PPL-101 self-administration, mean ± SEM): 29.0 ± 5.8 and 27.2 ± 6.1 and 32.2 ± 12.6
5 | CC(C1CC1)N1CCC23CCCCC2C1Cc1ccc(O)cc13 (stereo not drawn) [PPL-103, α-methyl-cyclopropylmethyl-morphinan] | 2.47 ± 0.105 | 0.29 ± 0.03 | – | 39.8 ± 3.9 | 41.7 ± 5.0 | – | potent antinociception at all doses tested | did not reveal any significant difference | decreases in global activity relative to vehicle controls following the first and third drug injections | EC50 (kappa opioid receptor [3]): 9.01 ± 2.64 nM; EC50 (delta opioid receptor [4]): 2.99 ± 0.92 nM; Dose giving maximal antinociception equivalent to morphine, as fraction of morphine's dose (male ICR mice [5]; mice): 1/10; Substitution for morphine in single-dose suppression test (non-human primates): substituted for morphine; Number of infusions under PR schedule (male Sprague-Dawley rats [9]; 30-100 µg/kg/infusion i.v., versus morphine 100 µg/kg/infusion): significantly decreased compared to the morphine group; Self-administration under FR-1 schedule when substituted for morphine (male Sprague-Dawley rats [9]; 30 and 100 µg/kg/infusion i.v., versus morphine 100 µg/kg/infusion): markedly decreased as compared to responses for morphine across all test sessions
6 | COC(=O)C=CC(=O)NC1CCC2(O)C3Cc4ccc(O)c5c4C2(CCN3CC2CC2)C1O5.Cl (stereo not drawn) [beta-FNA, beta-funaltrexamine HCl, reference compound] | – | – | – | – | – | have no effect on tail flick latency in mice | – | – | – | –
